Measured values as given in EPA's ToxRefDB 2.

Experiments:
[1] = test system: rat; settings: Subchronic oral toxicity in rodents, sprague dawley, Gavage/Intubation, dose end: 90 day, group: systemic
[2] = test system: rat; settings: Sub-acute repeat dose toxicity, sprague dawley, Oral, Gavage/Intubation, dose end: 10 day, group: systemic
[3] = test system: rabbit; settings: Prenatal developmental toxicity study, new zealand white, Oral, Gavage/Intubation, dose end: 18 GD
[4] = test system: rat; settings: Chronic toxicity, wistar, Oral, Feed, dose end: 105 week, group: systemic
[5] = test system: rat; settings: Prenatal developmental toxicity study, Crl: CD BR, Oral, Gavage/Intubation, dose end: 15 GD
[6] = test system: rat; settings: Multigenerational reproductive toxicity study, other, Oral, Feed, dose end: 2 generation
[7] = test system: rabbit; settings: Prenatal developmental toxicity study, other, Oral, Gavage/Intubation, dose end: 18 GD
[8] = test system: mouse; settings: Carcinogenicity, cd1, Oral, Feed, dose end: 24 month, group: systemic
[9] = test system: rat; settings: Subchronic oral toxicity in rodents, wistar, Feed, dose end: 3 month, group: systemic, systemic / organ weight / liver / nos
[10] = test system: dog; settings: Chronic toxicity, beagle, Oral, Feed, dose end: 104 week, group: systemic
[11] = systemic / clinical chemistry / alkaline phosphatase (alp/alk) / alkaline phosphatase (alp/alk) + systemic / clinical chemistry / calcium / …
[12] = systemic / pathology microscopic / liver / inflammation + systemic / clinical chemistry / aspartate aminotransferase (ast/sgot) / aspartate …
[13] = systemic / clinical chemistry / cholesterol / cholesterol + systemic / in life observation / body weight / body weight + systemic / organ …
[14] = group: developmental, systemic / in life observation / body weight / fetal weight
[15] = group: maternal, reproductive / reproductive performance / reproductive performance other / runts
[16] = systemic / in life observation / body weight / body weight gain + systemic / organ weight / kidney / absolute + systemic / organ weight / …
[17] = group: developmental, developmental / developmental malformation / bone / incomplete ossification
[18] = group: developmental, developmental / developmental malformation / bone / incomplete ossification + systemic / in life observation / body weight / fetal weight + …
[19] = group: maternal, systemic / in life observation / body weight / body weight gain + systemic / in life observation / food consumption / food consumption + …
[20] = group: offspring, systemic / in life observation / body weight / offspring (pup) weight
[21] = group: parental, systemic / in life observation / body weight / body weight gain + systemic / clinical chemistry / gamma glutamyl transferase (ggt) / gamma …
[22] = group: parental, systemic / in life observation / body weight / body weight gain + systemic / in life observation / food consumption / food consumption + …
[23] = group: developmental, developmental / developmental malformation / bone / [other]
[24] = group: maternal, systemic / in life observation / body weight / body weight gain
[25] = group: maternal, systemic / in life observation / body weight / body weight gain + systemic / in life observation / food consumption / food consumption
[26] = systemic / organ weight / liver / relative to body weight
[27] = systemic / organ weight / kidney / relative to body weight + systemic / organ weight / pancreas / relative to body weight + systemic / organ…

Clc1cccc(Cl)c1 [1,3-Dichlorobenzene]
LOAEL [1, 11]: > 588 mg/kg/day
NOAEL [1, 11]: ≥ 588 mg/kg/day
LEL [1, 12]: 9 mg/kg/day
NEL [1, 12]: < 9 mg/kg/day
NEL ([2]; systemic / clinical chemistry / cholesterol / cholesterol + systemic / in life observation / body weight / body weight + systemic / in life …): 37 mg/kg/day
LOAEL [2, 13]: > 735 mg/kg/day
NOAEL [2, 13]: ≥ 735 mg/kg/day
LEL ([2]; systemic / organ weight / liver / nos + systemic / pathology microscopic / liver / necrosis): 147 mg/kg/day

CSc1nnc(C(C)(C)C)c(=O)n1N [Metribuzin]
LEL [3, 14]: 45 mg/kg/day
LOAEL [3, 14]: 45 mg/kg/day
NEL [3, 14]: 15 mg/kg/day
NOAEL [3, 14]: 15 mg/kg/day
LOAEL ([3]; group: maternal, reproductive / reproductive performance / aborted / aborted + systemic / in life observation / body weight / body weight): 135 mg/kg/day
NOAEL ([3]; group: maternal, reproductive / reproductive performance / aborted / aborted + systemic / in life observation / body weight / body weight + reproductive / …): 45 mg/kg/day
LEL [3, 15]: 45 mg/kg/day
NEL [3, 15]: 15 mg/kg/day
LOAEL ([4]; systemic / in life observation / body weight / body weight gain): 14.4 mg/kg/day
NEL [4, 16]: 1.3 mg/kg/day
NOAEL [4, 16]: 5.27 mg/kg/day
LEL ([4]; systemic / organ weight / lung / relative to body weight): 1.87 mg/kg/day
LEL [5, 17]: 25 mg/kg/day
NEL [5, 17]: < 25 mg/kg/day
LOAEL [5, 18]: 200 mg/kg/day
NOAEL [5, 18]: 70 mg/kg/day
LEL [5, 19]: 25 mg/kg/day
LOAEL [5, 19]: > 200 mg/kg/day
NEL [5, 19]: < 25 mg/kg/day
NOAEL [5, 19]: ≥ 200 mg/kg/day
LEL [6, 20]: 7.5 mg/kg/day
LOAEL [6, 20]: 7.5 mg/kg/day
NEL [6, 20]: 1.5 mg/kg/day
NOAEL [6, 20]: 1.5 mg/kg/day
LEL [6, 21]: 7.5 mg/kg/day
LOAEL [6, 21]: 7.5 mg/kg/day
NEL [6, 22]: 1.5 mg/kg/day
NOAEL [6, 22]: 1.5 mg/kg/day
LEL [7, 23]: 85 mg/kg/day
LOAEL [7, 23]: 85 mg/kg/day
NEL [7, 23]: 30 mg/kg/day
NOAEL [7, 23]: 30 mg/kg/day
LEL [7, 24]: 30 mg/kg/day
LOAEL [7, 24]: 30 mg/kg/day
NEL [7, 25]: 10 mg/kg/day
NOAEL [7, 25]: 10 mg/kg/day
LOAEL ([8]; systemic / hematology / hematocrit (hct) / hematocrit (hct) + systemic / hematology / hemoglobin (hgb) / hemoglobin (hgb)): 567 mg/kg/day
NOAEL ([8]; systemic / hematology / hematocrit (hct) / hematocrit (hct) + systemic / hematology / hemoglobin (hgb) / hemoglobin (hgb) + systemic / organ…): 139 mg/kg/day
LEL [8, 26]: 35 mg/kg/day
NEL [8, 26]: < 35 mg/kg/day
LEL [9]: 3 mg/kg/day
LOAEL [9]: 3 mg/kg/day
NEL [9]: 1.25 mg/kg/day
NOAEL [9]: 1.25 mg/kg/day
LOAEL ([10]; systemic / clinical chemistry / cholesterol / cholesterol + systemic / hematology / blood clotting / blood clotting - prothrombin time + …): 37.5 mg/kg/day
LEL [10, 27]: 0.625 mg/kg/day
NEL [10, 27]: < 0.625 mg/kg/day
NOAEL ([10]; systemic / organ weight / kidney / relative to body weight + systemic / organ weight / pancreas / relative to body weight + systemic / …): 2.5 mg/kg/day
